Converted amounts (≈) assume the structure as drawn. Like-named read-outs stand apart in the source and are kept apart here.
Tests used:
Assay type in all cases: cell-based
Trichophyton rubrum = assay: MIC against Trichophyton rubrum; conditions: Trichophyton rubrum Castellani Sabouraud ATCC: 28188; read-out: MIC
Bacillus subtilis = Bacillus subtilis MIC / MBC; conditions: for MBC: Bacillus subtilis NRRL: B-571, minimum bactericidal concentration; for MIC: Bacillus subtilis
Bacillus thuringiensis = conditions: for MIC: Bacillus thuringiensis
Candida glabrata = Candida glabrata MIC / MFC; conditions: Nakaseomyces glabratus; for MIC: read-out: MIC
[1] = system: Burkholderia thailandensis Brett et al ATCC: 700388; assay: microbe, parasite or virus in culture
[2] = system: Francisella tularensis subsp. Holarctica Strain LVSR NR-597; assay: microbe, parasite or virus in culture
C. albicans = assay: Candida albicans MIC / MFC
[3] = Bacillus subtilis (Ehrenberg 1835) Cohn 1872 NRRL: B-571, read-out: MIC
[4] = Bacillus thuringiensis Berliner ATCC: 10792
[5] = Bacillus thuringiensis Berliner ATCC: 10792, read-out: MIC
[6] = Candida glabrata #584 (Table 2)
[7] = C. glabrata strain #584 (Table 7)
[8] = C. albicans strain #761, read-out: MIC
[9] = C. albicans strain #762, read-out: MIC

Row | SMILES | MIC (Trichophyton rubrum) [µg/mL] | MBC (Bacillus subtilis) [µg/mL] | MIC (Bacillus subtilis; [3]) [µg/mL] | MBC (Bacillus thuringiensis; [4]) [µg/mL] | MIC (Bacillus thuringiensis; [5]) [µg/mL] | MIC (Candida glabrata; [6]) [µg/mL] | MIC [1] [µg/mL] | MIC [2] [µg/mL] | further results
1 | COC(=O)c1ccc2[nH]cc(Sc3ccc(Br)cc3)c2c1 [Compound 172G, methyl 3-((4-bromophenyl)thio)-1H-indole-5-carboxylate] | 18.1 (≈ 50 µM) | 45 (≈ 124 µM) | 11.3 (≈ 31.2 µM) | > 45 | 11.3 (≈ 31.2 µM) | > 50 |  |  | 
2 | Brc1ccc(CSc2c[nH]c3ccc(Br)cc23)cc1 [Compound 174O, 5-bromo-3-((4-bromobenzyl)thio)-1H-indole] | 1.24 (≈ 3.12 µM) | > 50 | 3.13 (≈ 7.88 µM) | 3.13 (≈ 7.88 µM) | 3.13 (≈ 7.88 µM) | > 50 | > 50 |  | 
3 | Nc1cccc(Sc2c[nH]c3ccc(Br)cc23)c1 [Compound 174Y, 3-((5-bromo-1H-indol-3-yl)thio)aniline] | 3.97 (≈ 12.4 µM) | > 10 | 10 (≈ 31.3 µM) | > 10 | 10 (≈ 31.3 µM) | 25 (≈ 78.3 µM) | > 50 |  | 
4 | Brc1ccc2[nH]cc(Sc3ccc(-c4ccccc4)cc3)c2c1 [Compound 174R, 3-([1,1′-biphenyl]-4-ylthio)-5-bromo-1H-indole] | > 9.5 |  | > 50 |  | > 50 | > 50 | > 50 |  | 
5 | Brc1ccc2[nH]cc(SCc3ccccc3)c2c1 [Compound 174K, 3-(benzylthio)-5-bromo-1H-indole] | 1.98 (≈ 6.22 µM) | 6.25 (≈ 19.6 µM) | 3.13 (≈ 9.84 µM) | 6.25 (≈ 19.6 µM) | 3.13 (≈ 9.84 µM) | 6.25 (≈ 19.6 µM) | > 50 |  | MFC (Candida glabrata; Candida glabrata #584 (Table 2), minimum fungicidal concentration, read-out: MFC): 12.5 µg/mL (≈ 39.3 µM)
6 | Cc1c(Sc2ccc(Br)cc2)[nH]c2ccccc12 [Compound 172B, 2-((4-bromophenyl)thio)-3-methyl-1H-indole] | 15.6 (≈ 49 µM) | 25 (≈ 78.6 µM) | 6.25 (≈ 19.6 µM) | 25 (≈ 78.6 µM) | 6.25 (≈ 19.6 µM) | 50 (≈ 157 µM) |  | 3.13 (≈ 9.84 µM) | 
7 | FC(F)(F)c1ccc2[nH]cc(Sc3ccccc3Br)c2c1 [Compound 174AX, 3-((2-bromophenyl)thio)-5-(trifluoromethyl)-1H-indole] |  | 8 (≈ 21.5 µM) | 0.5 (≈ 1.34 µM) | 2 (≈ 5.37 µM) | 1 (≈ 2.69 µM) | 12.5 (≈ 33.6 µM) |  | 1 (≈ 2.69 µM) | MIC (Candida glabrata; C. glabrata strain #325): > 50 µg/mL; MIC (Candida glabrata; [7]): 12.5 µg/mL (≈ 33.6 µM); MFC (C. albicans; C. albicans strain #761, read-out: MFC): 50 µg/mL (≈ 134 µM); MIC (C. albicans; [8]): 12.5 µg/mL (≈ 33.6 µM); MFC (C. albicans; C. albicans strain #762, read-out: MFC): 12.5 µg/mL (≈ 33.6 µM); MIC (C. albicans; [9]): 6.25 µg/mL (≈ 16.8 µM)
8 | Brc1ccc(Sc2c[nH]c3ccccc23)cc1 [Compound 174U, 3-((4-bromophenyl)thio)-1H-indole] | 0.95 (≈ 3.12 µM) | > 10 | > 50 | 12.5 (≈ 41.1 µM) | 12.5 (≈ 41.1 µM) | > 50 | > 50 | 1.56 (≈ 5.13 µM) | 
9 | Clc1ccc(Sc2c[nH]c3ccc(Br)cc23)cc1Cl [Compound 174W, 5-bromo-3-((3,4-dichlorophenyl)thio)-1H-indole] | 1.16 (≈ 3.11 µM) | > 10 | 1.25 (≈ 3.35 µM) | 5 (≈ 13.4 µM) | 1.25 (≈ 3.35 µM) | 25 (≈ 67 µM) | > 50 |  | MIC (Candida glabrata; C. glabrata strain #325): > 50 µg/mL; MIC (Candida glabrata; [7]): 25 µg/mL (≈ 67 µM); MIC (C. albicans; [8]): > 50 µg/mL; MIC (C. albicans; [9]): > 50 µg/mL
10 | Brc1ccc(Sc2c[nH]c3cc(Br)c(Br)cc23)cc1 [Compound 174AB, 5,6-dibromo-3-((4-bromophenyl)thio)-1H-indole] |  | 16 (≈ 34.6 µM) | 4 (≈ 8.66 µM) | 8 (≈ 17.3 µM) | 2 (≈ 4.33 µM) | 3.13 (≈ 6.77 µM) | > 50 | 4 (≈ 8.66 µM) | MIC (Bacillus subtilis; strain B-1985, read-out: Bacillus subtilis MIC): 4 µg/mL (≈ 8.66 µM); MIC (Bacillus subtilis; strain B-3665, read-out: Bacillus subtilis MIC): 2 µg/mL (≈ 4.33 µM); MIC (Bacillus subtilis; strain B-14322, read-out: Bacillus subtilis MIC): 2 µg/mL (≈ 4.33 µM); MIC (Bacillus subtilis; strain B-41090, read-out: Bacillus subtilis MIC): 4 µg/mL (≈ 8.66 µM); MIC (Bacillus subtilis; strain B-41581, read-out: Bacillus subtilis MIC): 2 µg/mL (≈ 4.33 µM); MIC (Bacillus subtilis; strain BD-594, read-out: Bacillus subtilis MIC): 4 µg/mL (≈ 8.66 µM); MIC (Bacillus thuringiensis; strain B-1596): 4 µg/mL (≈ 8.66 µM); MIC (Candida glabrata; C. glabrata strain #325): > 50 µg/mL; MIC (Candida glabrata; [7]): 3.13 µg/mL (≈ 6.77 µM); MIC (C. albicans; [8]): > 50 µg/mL; MIC (C. albicans; [9]): > 50 µg/mL
11 | Brc1ccc(Sc2[nH]c3ccccc3c2Sc2ccc(Br)cc2)cc1 [Compound 156P, 2,3-bis((4-bromophenyl)thio)-1H-indole] | 6.11 (≈ 12.4 µM) | > 50 | 12.5 (≈ 25.4 µM) | > 50 | 3.13 (≈ 6.37 µM) | > 50 |  | > 50 | 
12 | Nc1ccc(Sc2c[nH]c3ccc(Br)cc23)cc1 [Compound 174Z, 4-((5-bromo-1H-indol-3-yl)thio)aniline] | 3.97 (≈ 12.4 µM) | > 10 | 10 (≈ 31.3 µM) | > 10 | 10 (≈ 31.3 µM) | 25 (≈ 78.3 µM) | > 50 |  | 

Reference: US11180452B2, “Methods and compositions for selectively inhibiting pathogenic microbes” (priority 2019, dated 2021)
